Tests used:
[1] = Aldehyde adduct formation over time (product HPLC peak); details: for Formation of Product, ranking, 7 Hours / Formation of Product, ranking, 23 Hours: rank from most effective (1) to least
Experimental: It is not possible to conclude if this is the result of poor dissociation (from cyclodextrin) or poor interaction with the aldehyde. Best fit lines over this period give excellent fit to data. […] It can be used to relatively rank each of the samples examined, including NS2. The data were first evaluated over a 7 h time window.

[2] = Consumption of 4HNE over time (HPLC, 254 nm); details: for decrease in HNE relative to corresponding increase in adduct: 1 week time period; for Consumption of 4HNE, ranking, 7 Hours / Consumption of 4HNE, ranking, 23 Hours: rank from most effective (1) to least; for Consumption of 4HNE, ranking, 23 Hours: ranks 1-4 essentially identical
From the text: 5 of 6 samples show consumption of 4HNE. One sample (2-(3-aminoquinolin-2-yl)propan-2-ol) overlaps 4HNE HPLC peak using current method. Best fit lines over this period give poorer fit to data than product formation data. Rate of 4HNE consumption can be used as an approximation of binding kinetics. […] The data were used to rank relatively each of the samples examined, including NS-2 but excluding 2-(3-aminoquinolin-2-yl)propan-2-ol.

Compound	Gradient of product HPLC peak increase (rate of adduct formation) ([1]; 7 h time window)	Gradient of product HPLC peak increase (rate of adduct formation) ([1]; 23 h time window)	Formation of Product, ranking, 7 Hours [1]	Formation of Product, ranking, 23 Hours [1]	decrease in HNE relative to corresponding increase in adduct [2]	Gradient of 4HNE consumption ([2]; 23 h)	Gradient of 4HNE consumption ([2]; first 7 h, analysis at 254 nm)	Consumption of 4HNE, ranking, 7 Hours [2]	Consumption of 4HNE, ranking, 23 Hours [2]
CC(C)(O)c1nc2cc(Cl)ccc2cc1N [2-(3-amino-7-chloroquinolin-2-yl)propan-2-ol]	(Gradient 2.02,	(Gradient 1.21,	3	3	greater	(Gradient −0.05,	(Gradient −0.06,	2	1
CC(C)(O)c1nc2c(Cl)cccc2cc1N [2-(3-amino-8-chloroquinolin-2-yl)propan-2-ol]	(Gradient 1.18,	(Gradient 0.81,	5	5	greater	(Gradient −0.02,	(Gradient −0.01,	5	5
CC(C)(O)c1nc2cccc(Cl)c2cc1N [2-(3-amino-5-chloroquinolin-2yl)propan-2-ol]	(Gradient 0.86,	(Gradient 0.44,	6	6		(Gradient −0.04,	(Gradient −0.05,	3	2
CC(C)(O)c1nc2ccccc2cc1N [2-(3-aminoquinolin-2-yl)propan-2-ol]	(Gradient 3.68,	(Gradient 1.99,	1	1					
CC(C)(O)c1nc2ccc(Br)cc2cc1N [2-(3-amino-6-bromoquinolin-2-yl)propan-2-ol]	(Gradient 1.63,	(Gradient 1.16,	4	4		(Gradient −0.04,	(Gradient −0.04,	4	4
